{"source": "patent KR20140032201A", "about": "“로리오라이드를 유효성분으로 함유하는 세포 노화 억제용 조성물” (영남대학교 산학협력단, priority 2012, dated 2014)", "key": {"[1]": {"test_system": "cellular senescence (세포노화)", "conditions": "cited from earlier work"}, "[2]": {"test_system": "human fibroblasts (사람 섬유아세포)", "assay": "MTT cytotoxicity, human fibroblasts", "format": "cell-based", "conditions": "10 ug/ml"}, "[3]": {"test_system": "human umbilical vein endothelial cells (제대정맥혈관내피세포)", "assay": "MTT cytotoxicity, umbilical vein endothelial cells", "format": "cell-based", "conditions": "10 ug/ml"}, "[4]": {"test_system": "human fibroblasts (사람 섬유아세포)", "assay": "Adriamycin-induced senescence, SA-β-gal activity staining, human fibroblasts", "format": "cell-based"}, "[5]": {"test_system": "human umbilical vein endothelial cells (제대정맥혈관내피세포)", "assay": "Adriamycin-induced senescence, SA-β-gal activity staining, umbilical vein endothelial cells", "format": "cell-based", "conditions": "500 nM adriamycin 4 h, then 10 ug/ml, 3 days"}, "[6]": {"test_system": "reactive oxygen species in human fibroblasts (활성산소, 사람 섬유아세포)", "assay": "Intracellular reactive oxygen species by DCF flow cytometry, adriamycin-treated human fibroblasts", "format": "cell-based", "conditions": "500 nM adriamycin 4 h, 3 days, DCF fluorescence"}, "[7]": {"test_system": "human fibroblasts with replicative senescence (복제노화가 유도된 사람 섬유아세포)", "assay": "Replicative senescence, SA-β-gal activity staining, old human fibroblasts", "format": "cell-based", "conditions": "increasing concentrations"}, "[8]": {"test_system": "Caenorhabditis elegans (꼬마선충)", "conditions": "C. elegans, literature; cited from earlier work"}, "mouse model (생쥐모델)": {"test_system": "mouse model (생쥐모델)", "conditions": "literature; cited from earlier work"}}, "note": "Like-named read-outs stand apart in the source and are kept apart here.", "data": [{"compound": "CS(=O)(=O)Nc1ccc([N+](=O)[O-])cc1OC1CCCCC1", "note": "[NS398]", "values": [{"measurement": "inhibition of cellular senescence", "setting": "[1]; literature", "result": "세포노화를 억제한다"}]}, {"compound": "O=C1O[C@H]([C@@H](O)CO)C(O)=C1O", "note": "[비타민 C]", "values": [{"measurement": "inhibition of cellular senescence", "setting": "[1]; literature", "result": "세포노화를 억제한다"}]}, {"compound": "CC1(C)CC(O)CC2(C)OC(=O)C=C12", "note": "(single isomer, unassigned; (-)) [로리오라이드[(-)-loliolide], (-)-loliolide]", "values": [{"measurement": "cytotoxicity (MTT)", "setting": "[2]", "result": "세포독성이 관찰되지 않았다"}, {"measurement": "cytotoxicity (MTT)", "setting": "[3]", "result": "세포독성이 관찰되지 않았다"}, {"measurement": "SA-β-gal activity staining increased by adriamycin", "setting": "[4]; 500 nM adriamycin 4 h, then 10 ug/ml, 3 days", "result": "감소되었으나"}, {"measurement": "concentration dependence of inhibition of adriamycin-increased SA-β-gal activity", "setting": "[4]; increasing concentrations", "result": "농도를 증가시킬수록 감소함"}, {"measurement": "SA-β-gal activity staining increased by adriamycin", "setting": "[5]", "result": "변화가 없었다"}, {"measurement": "reactive oxygen species increased by adriamycin", "setting": "[6]", "result": "활성산소도 감소시킴"}, {"measurement": "SA-β-gal activity increased in old cells (replicative senescence)", "setting": "[7]", "result": "농도 의존적으로 늙은 세포에서 증가된 SA-β-gal 활성을 감소시킴"}]}, {"compound": "Nc1ccc(S(=O)(=O)c2ccc(N)cc2)cc1", "note": "[4,4'-diaminodiphenylsulfone]", "values": [{"measurement": "healthspan", "setting": "[8]", "result": "건강수명을 늘리는"}, {"measurement": "occurrence of ageing-related diseases", "setting": "[8]", "result": "노화관련 질환의 발생을 억제하며"}]}, {"compound": "CC(=O)N[C@@H](CS)C(=O)O", "note": "[N-아세틸시스테인(N-acetylcysteine), N-acetylcysteine]", "values": [{"measurement": "inhibition of cellular senescence", "setting": "[1]; literature; NAC)", "result": "세포노화 억제 효능이 있는 것으로 보고된"}, {"measurement": "inhibition of cellular senescence", "setting": "[1]; literature", "result": "세포노화를 억제한다"}]}, {"compound": "epifriedelanol [에피프리에델라놀(epifriedelanol)]", "values": [{"measurement": "inhibition of cellular senescence", "setting": "[1]; literature", "result": "세포노화를 억제한다"}]}, {"compound": "CO[C@H]1C[C@@H]2CC[C@@H](C)[C@@](O)(O2)C(=O)C(=O)N2CCCC[C@H]2C(=O)O[C@H]([C@H](C)C[C@@H]2CC[C@@H](O)[C@H](OC)C2)CC(=O)[C@H](C)/C=C(\\C)[C@@H](O)[C@@H](OC)C(=O)[C@H](C)C[C@H](C)/C=C/C=C/C=C/1C", "note": "[라파마이신(rapamycin), rapamycin]", "values": [{"measurement": "inhibition of cellular senescence", "setting": "[1]; literature", "result": "세포노화 억제 효능이 있는 것으로 보고된"}, {"measurement": "healthspan", "setting": "mouse model (생쥐모델)", "result": "건강수명을 늘리는"}, {"measurement": "occurrence of ageing-related diseases", "setting": "mouse model (생쥐모델)", "result": "노화관련 질환의 발생을 억제하며"}]}]}
